Experimental data published in patent publication US12370168B2 (scPharmaceuticals Inc., priority 2013, dated 2025).
Where two headings read alike, the source gives them in different places.

Experiments:
[1] = unbuffered
[2] = Example 4 short term storage stability of 8 mg/mL furosemide Tris-buffered solutions; details: over 48 hours
Protocol: Upon preparation, samples were filtered through 0.2 μm nylon filters.
The osmolality values of 50 μL aliquots of each sample were measured by freezing point depression.
Aliquots of each sample were stored at each condition and subsequently filtered and analyzed after 24 and 48 hours of storage.

[3] = 8 mg/mL
[4] = Tris buffer pH 7.0, 7.5, 8.0, −20° C., 2° C.-8° C., 25° C., 40° C.
[5] = 25 mM Tris, nominal pH 7.0, 2-8° C., three months
[6] = 25 mM Tris, nominal pH 7.0, 25° C., three months
[7] = 25 mM Tris, nominal pH 7.0, 40° C., three months
[8] = 25 mM Tris, nominal pH 7.0, −20° C., three months
[9] = 25 mM Tris, nominal pH 7.4, 2-8° C., three months
[10] = 25 mM Tris, nominal pH 7.4, 25° C., three months
[11] = 25 mM Tris, nominal pH 7.4, 40° C., three months
[12] = 25 mM Tris, nominal pH 7.4, −20° C., three months
[13] = 25 mM Tris, nominal pH 8.0, 2-8° C., three months
[14] = 25 mM Tris, nominal pH 8.0, 25° C., three months
[15] = 25 mM Tris, nominal pH 8.0, 40° C., three months
[16] = 25 mM Tris, nominal pH 8.0, −20° C., three months
[17] = 50 mM Tris, nominal pH 7.0, 2-8° C., three months
[18] = 50 mM Tris, nominal pH 7.0, 25° C., three months
[19] = 50 mM Tris, nominal pH 7.0, 40° C., three months
[20] = 50 mM Tris, nominal pH 7.0, −20° C., three months
[21] = 50 mM Tris, nominal pH 7.4, 2-8° C., three months
[22] = 50 mM Tris, nominal pH 7.4, 25° C., three months
[23] = 50 mM Tris, nominal pH 7.4, 40° C., three months
[24] = 50 mM Tris, nominal pH 7.4, −20° C., three months
[25] = 50 mM Tris, nominal pH 8.0, 2-8° C., three months
[26] = 50 mM Tris, nominal pH 8.0, 25° C., three months
[27] = 50 mM Tris, nominal pH 8.0, 40° C., three months
[28] = 50 mM Tris, nominal pH 8.0, −20° C., three months
[29] = 100 mM Tris, nominal pH 7.0, 2-8° C., three months
[30] = 100 mM Tris, nominal pH 7.0, 25° C., three months
[31] = 100 mM Tris, nominal pH 7.0, 40° C., three months
[32] = 100 mM Tris, nominal pH 7.0, t0
[33] = 100 mM Tris, nominal pH 7.0, −20° C., three months
[34] = 100 mM Tris, nominal pH 7.4, 2-8° C., three months
[35] = 100 mM Tris, nominal pH 7.4, 25° C., three months
[36] = 100 mM Tris, nominal pH 7.4, 40° C., three months
[37] = 100 mM Tris, nominal pH 7.4, t0
[38] = 100 mM Tris, nominal pH 7.4, −20° C., three months
[39] = 100 mM Tris, nominal pH 8.0, 2-8° C., three months
[40] = 100 mM Tris, nominal pH 8.0, 25° C., three months
[41] = 100 mM Tris, nominal pH 8.0, 40° C., three months
[42] = 100 mM Tris, nominal pH 8.0, t0
[43] = 100 mM Tris, nominal pH 8.0, −20° C., three months
[44] = 25, 50, 100 mM Tris, pH 7.0, 7.4, 8.0, −20° C. to 40° C., three months

## NS(=O)(=O)c1cc(C(=O)O)c(NCc2ccco2)cc1Cl [Furosemide, 4-chloro-2-(furan-2-ylmethylamino)-5-sulfamoyl-benzoic acid]
[1]; 0.1 mg/mL and 8 mg/mL, adjusted to pH 8 to 9 with NaOH and HCl, monitored 72 hours
  solution pH over time: continually decrease
[1]; 8 mg/mL, pH 8.5, same equivalents of furosemide, acid and base
  reproducibility of observed pH values: varied widely
[2]; [4]
  change in furosemide concentration: No decrease
  pH deviation from the initial value: ≤ 0.1 units
[2]; Tris buffer
  osmolality over time: consistent
[3]; [5]
  Osmolality: 297 mOsm/kg H2O
  [Furosemide]: 8.01 mg/mL
  pH: 7.08
[3]; [6]
  Osmolality: 298 mOsm/kg H2O
  [Furosemide]: 7.91 mg/mL
  pH: 7.09
[3]; [7]
  Osmolality: 296 mOsm/kg H2O
  [Furosemide]: 7.89 mg/mL
  pH: 7.08
[3]; 25 mM Tris, nominal pH 7.0, t0
  Osmolality: 293 mOsm/kg H2O
  [Furosemide]: 8.09 mg/mL
  pH: 7.02
[3]; [8]
  Osmolality: 296 mOsm/kg H2O
  [Furosemide]: 7.91 mg/mL
  pH: 7.07
[3]; [9]
  Osmolality: 291 mOsm/kg H2O
  [Furosemide]: 7.79 mg/mL
  pH: 7.49
[3]; [10]
  Osmolality: 289 mOsm/kg H2O
  [Furosemide]: 7.81 mg/mL
  pH: 7.47
[3]; [11]
  Osmolality: 290 mOsm/kg H2O
  [Furosemide]: 7.90 mg/mL
  pH: 7.47
[3]; 25 mM Tris, nominal pH 7.4, t0
  Osmolality: 287 mOsm/kg H2O
  [Furosemide]: 8.00 mg/mL
  pH: 7.42
[3]; [12]
  Osmolality: 288 mOsm/kg H2O
  [Furosemide]: 7.92 mg/mL
  pH: 7.47
[3]; [13]
  Osmolality: 292 mOsm/kg H2O
  [Furosemide]: 7.97 mg/mL
  pH: 8.07
[3]; [14]
  Osmolality: 294 mOsm/kg H2O
  [Furosemide]: 7.76 mg/mL
  pH: 8.06
[3]; [15]
  Osmolality: 294 mOsm/kg H2O
  [Furosemide]: 7.99 mg/mL
  pH: 8.07
[3]; 25 mM Tris, nominal pH 8.0, t0
  Osmolality: 289 mOsm/kg H2O
  [Furosemide]: 8.08 mg/mL
  pH: 8.04
[3]; [16]
  Osmolality: 291 mOsm/kg H2O
  [Furosemide]: 7.91 mg/mL
  pH: 8.06
[3]; [17]
  Osmolality: 294 mOsm/kg H2O
  [Furosemide]: 8.02 mg/mL
  pH: 7.10
[3]; [18]
  Osmolality: 290 mOsm/kg H2O
  [Furosemide]: 8.07 mg/mL
  pH: 7.10
[3]; [19]
  Osmolality: 295 mOsm/kg H2O
  [Furosemide]: 7.94 mg/mL
  pH: 7.12
[3]; 50 mM Tris, nominal pH 7.0, t0
  Osmolality: 290 mOsm/kg H2O
  [Furosemide]: 8.06 mg/mL
  pH: 7.04
[3]; [20]
  Osmolality: 289 mOsm/kg H2O
  [Furosemide]: 8.12 mg/mL
  pH: 7.13
[3]; [21]
  Osmolality: 293 mOsm/kg H2O
  [Furosemide]: 8.10 mg/mL
  pH: 7.50
[3]; [22]
  Osmolality: 292 mOsm/kg H2O
  [Furosemide]: 7.87 mg/mL
  pH: 7.49
[3]; [23]
  Osmolality: 296 mOsm/kg H2O
  [Furosemide]: 7.97 mg/mL
  pH: 7.50
[3]; 50 mM Tris, nominal pH 7.4, t0
  Osmolality: 289 mOsm/kg H2O
  [Furosemide]: 8.09 mg/mL
  pH: 7.44
[3]; [24]
  Osmolality: 292 mOsm/kg H2O
  [Furosemide]: 7.93 mg/mL
  pH: 7.52
[3]; [25]
  Osmolality: 296 mOsm/kg H2O
  [Furosemide]: 7.84 mg/mL
  pH: 8.10
[3]; [26]
  Osmolality: 296 mOsm/kg H2O
  [Furosemide]: 7.82 mg/mL
  pH: 8.09
[3]; [27]
  Osmolality: 289 mOsm/kg H2O
  [Furosemide]: 7.95 mg/mL
  pH: 8.10
[3]; 50 mM Tris, nominal pH 8.0, t0
  Osmolality: 288 mOsm/kg H2O
  [Furosemide]: 8.14 mg/mL
  pH: 8.04
[3]; [28]
  Osmolality: 289 mOsm/kg H2O
  [Furosemide]: 7.93 mg/mL
  pH: 8.11
[3]; [29]
  Osmolality: 296 mOsm/kg H2O
  [Furosemide]: 7.89 mg/mL
  pH: 7.00
[3]; [30]
  Osmolality: 293 mOsm/kg H2O
  [Furosemide]: 7.79 mg/mL
  pH: 6.99
[3]; [31]
  Osmolality: 294 mOsm/kg H2O
  [Furosemide]: 7.87 mg/mL
  pH: 6.98
[3]; [32]
  Osmolality: 292 mOsm/kg H2O
  [Furosemide]: 8.04 mg/mL
  pH: 7.02
[3]; [33]
  Osmolality: 298 mOsm/kg H2O
  [Furosemide]: 7.90 mg/mL
  pH: 7.00
[3]; [34]
  Osmolality: 301 mOsm/kg H2O
  [Furosemide]: 7.95 mg/mL
  pH: 7.41
[3]; [35]
  Osmolality: 295 mOsm/kg H2O
  [Furosemide]: 7.82 mg/mL
  pH: 7.41
[3]; [36]
  Osmolality: 297 mOsm/kg H2O
  [Furosemide]: 7.90 mg/mL
  pH: 7.39
[3]; [37]
  Osmolality: 297 mOsm/kg H2O
  [Furosemide]: 8.17 mg/mL
  pH: 7.42
[3]; [38]
  Osmolality: 301 mOsm/kg H2O
  [Furosemide]: 7.92 mg/mL
  pH: 7.42
[3]; [39]
  Osmolality: 295 mOsm/kg H2O
  [Furosemide]: 7.91 mg/mL
  pH: 7.99
[3]; [40]
  Osmolality: 288 mOsm/kg H2O
  [Furosemide]: 7.79 mg/mL
  pH: 7.97
[3]; [41]
  Osmolality: 294 mOsm/kg H2O
  [Furosemide]: 7.79 mg/mL
  pH: 7.98
[3]; [42]
  Osmolality: 292 mOsm/kg H2O
  [Furosemide]: 8.08 mg/mL
  pH: 7.99
[3]; [43]
  Osmolality: 296 mOsm/kg H2O
  [Furosemide]: 7.89 mg/mL
  pH: 7.99
[3]; [44]
  change in furosemide concentration: no change
  change in osmolality: no change
  change in pH: no change
  change in visual appearance: no change
